Experimental data as given in PubChem BioAssay (NCI).
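All cell lines were grown in 96-well plates and treated with compound for 48 hours. TGI denotes the concentration required for complete inhibition of growth.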

Assays:
Assay in all cases: NCI anticancer screen, dose series, 48 h
[1] = system: HS 578T breast
[2] = system: 786-0 renal
[3] = system: SK-MEL-2 melanoma
[4] = system: NCI-H226 lung
[5] = system: OVCAR-4 ovarian
[6] = system: A498 renal
[7] = system: SF-295 CNS
[8] = system: KM12 colon
[9] = system: LOX IMVI melanoma
[10] = system: HL-60(TB) leukemia
[11] = system: BT-549 breast
[12] = system: SF-539 CNS
[13] = system: UACC-62 melanoma
[14] = system: MDA-N
[15] = system: CAKI-1 renal
[16] = system: HCC-2998 colon
[17] = system: IGROV1 ovarian
[18] = system: UO-31 renal
[19] = system: MALME-3M melanoma
[20] = system: MDA-MB-435
[21] = system: TK-10 renal
[22] = system: NCI-H23 lung
[23] = system: T-47D breast
[24] = system: SK-MEL-28 melanoma
[25] = system: MCF7 breast
[26] = system: OVCAR-3 ovarian
[27] = system: SK-OV-3 ovarian
[28] = system: RXF 393 renal
[29] = system: SK-MEL-5 melanoma
[30] = system: COLO 205 colon
[31] = system: CCRF-CEM leukemia
[32] = system: U251 CNS
[33] = system: A549 NSCLC
[34] = system: OVCAR-8 ovarian
[35] = system: OVCAR-5 ovarian
[36] = system: RPMI-8226 leukemia
[37] = system: HCT-116 colon
[38] = system: HCT-15 colon
[39] = system: NCI-H460 lung
[40] = system: SNB-19 CNS
[41] = system: M14 melanoma
[42] = system: K-562 leukemia
[43] = system: PC-3 prostate
[44] = system: HT29 colon
[45] = system: UACC-257 melanoma
[46] = system: SN12C renal
[47] = system: MOLT-4 leukemia
[48] = system: SNB-75 CNS
[49] = system: NCI/ADR-RES ovarian
[50] = system: NCI-H522 lung
[51] = system: EKVX NSCLC
[52] = system: HOP-62 NSCLC
[53] = system: SW-620 colon
[54] = system: ACHN renal
[55] = system: HOP-92 NSCLC
[56] = system: MDA-MB-231 breast
[57] = system: SR leukemia
[58] = system: SF-268 CNS
[59] = system: DU-145 prostate

COc1ccc(OC)c(CC2CCc3nc(N)nc(N)c3C2)c1 (stereo unspecified)
TGI [1]: > 70.8 µM | TGI [2]: 4.46 µM | TGI [3]: 43.6 µM | TGI [4]: > 49.4 µM | TGI [5]: > 100 µM | TGI [6]: 62 µM | TGI [7]: 27.7 µM | TGI [8]: > 100 µM | TGI [9]: 25.6 µM | TGI [10]: > 100 µM | TGI [11]: 6.22 µM | TGI [12]: 22.6 µM | TGI [13]: 25.8 µM | TGI [14]: 27.7 µM | TGI [15]: > 100 µM | TGI [16]: > 49.9 µM | TGI [17]: 28.1 µM | TGI [18]: > 75.4 µM | TGI [19]: 24.2 µM | TGI [20]: 54 µM | TGI [21]: > 94 µM | TGI [22]: > 49.8 µM | TGI [23]: > 68 µM | TGI [24]: > 92.5 µM | TGI [25]: 32 µM | TGI [26]: > 100 µM | TGI [27]: > 100 µM | TGI [28]: 4.37 µM | TGI [29]: 28.9 µM | TGI [30]: 29.2 µM | TGI [31]: > 100 µM | TGI [32]: > 100 µM | TGI [33]: > 100 µM | TGI [34]: > 100 µM | TGI [35]: > 100 µM | TGI [36]: > 100 µM | TGI [37]: > 100 µM | TGI [38]: > 72.8 µM | TGI [39]: > 46 µM | TGI [40]: > 81.8 µM | TGI [41]: 24.3 µM | TGI [42]: > 100 µM | TGI [43]: 52.7 µM | TGI [44]: > 100 µM | TGI [45]: 34.4 µM | TGI [46]: > 100 µM | TGI [47]: > 100 µM | TGI [48]: 27.2 µM | TGI [49]: > 32.4 µM | TGI [50]: 25 µM | TGI [51]: > 100 µM | TGI [52]: 24.4 µM | TGI [53]: > 100 µM | TGI [54]: > 65.8 µM | TGI [55]: 77.4 µM | TGI [56]: > 100 µM | TGI [57]: > 69.8 µM

COc1ccc2oc(OC)c(CC=C(C)C)c(=O)c2c1C
TGI [1]: > 100 µM | TGI [2]: > 100 µM | TGI [3]: > 100 µM | TGI [4]: > 100 µM | TGI [6]: > 100 µM | TGI [7]: > 100 µM | TGI [8]: > 100 µM | TGI [9]: > 100 µM | TGI [10]: > 100 µM | TGI [11]: > 100 µM | TGI [12]: > 100 µM | TGI [13]: > 100 µM | TGI [14]: > 100 µM | TGI [15]: > 100 µM | TGI [16]: > 100 µM | TGI [17]: > 100 µM | TGI [18]: > 100 µM | TGI [19]: > 100 µM | TGI [58]: > 100 µM | TGI [20]: > 100 µM | TGI [21]: > 100 µM | TGI [22]: > 100 µM | TGI [23]: > 100 µM | TGI [24]: > 100 µM | TGI [25]: > 100 µM | TGI [26]: > 100 µM | TGI [27]: > 100 µM | TGI [59]: > 100 µM | TGI [29]: > 100 µM | TGI [30]: > 100 µM | TGI [31]: > 100 µM | TGI [32]: > 100 µM | TGI [33]: > 100 µM | TGI [34]: > 100 µM | TGI [35]: > 100 µM | TGI [36]: > 100 µM | TGI [37]: > 100 µM | TGI [38]: > 100 µM | TGI [39]: > 100 µM | TGI [40]: > 100 µM | TGI [41]: > 100 µM | TGI [42]: > 100 µM | TGI [43]: > 100 µM | TGI [44]: > 100 µM | TGI [45]: > 100 µM | TGI [46]: > 100 µM | TGI [47]: > 100 µM | TGI [48]: > 100 µM | TGI [49]: > 100 µM | TGI [50]: > 100 µM | TGI [51]: > 100 µM | TGI [52]: > 100 µM | TGI [53]: > 100 µM | TGI [54]: > 100 µM | TGI [56]: > 100 µM | TGI [57]: > 100 µM

COc1ccc(C(SCCO)(c2ccccc2)c2ccccc2)cc1
TGI [1]: 59.2 µM | TGI [2]: 27 µM | TGI [3]: 28 µM | TGI [4]: 30.2 µM | TGI [5]: 31.4 µM | TGI [6]: 33.3 µM | TGI [7]: 28.6 µM | TGI [8]: 37 µM | TGI [9]: 39.7 µM | TGI [10]: 67 µM | TGI [11]: 32.4 µM | TGI [12]: 30.2 µM | TGI [13]: 28.1 µM | TGI [14]: 26 µM | TGI [15]: 32.2 µM | TGI [16]: 31.1 µM | TGI [18]: 28.1 µM | TGI [19]: 38.5 µM | TGI [58]: 31.7 µM | TGI [20]: 27.1 µM | TGI [21]: 35 µM | TGI [22]: 34 µM | TGI [23]: 27 µM | TGI [24]: 33.6 µM | TGI [25]: 25 µM | TGI [26]: 31.8 µM | TGI [27]: 34.8 µM | TGI [28]: 41 µM | TGI [59]: 27 µM | TGI [29]: 21.7 µM | TGI [30]: 27.5 µM | TGI [31]: 64.8 µM | TGI [32]: 25.9 µM | TGI [33]: 24.6 µM | TGI [34]: 38.5 µM | TGI [35]: 36.4 µM | TGI [37]: 23.7 µM | TGI [38]: 28.7 µM | TGI [39]: 27.5 µM | TGI [40]: 29.1 µM | TGI [41]: 21.3 µM | TGI [42]: > 100 µM | TGI [43]: 25.4 µM | TGI [44]: 39.2 µM | TGI [45]: 32.7 µM | TGI [46]: 28.4 µM | TGI [47]: > 100 µM | TGI [48]: 25.7 µM | TGI [49]: 34.2 µM | TGI [50]: 34.4 µM | TGI [51]: 28.3 µM | TGI [52]: 37.9 µM | TGI [53]: 81.8 µM | TGI [54]: 27.3 µM | TGI [55]: 25.4 µM | TGI [56]: 31 µM | TGI [57]: > 100 µM

c1ccc2c(c1)ncn2C1CCCCO1 (stereo unspecified)
TGI [1]: > 100 µM | TGI [2]: > 100 µM | TGI [3]: > 100 µM | TGI [4]: > 100 µM | TGI [5]: > 100 µM | TGI [7]: > 100 µM | TGI [8]: > 100 µM | TGI [9]: > 100 µM | TGI [10]: > 100 µM | TGI [11]: > 100 µM | TGI [12]: > 100 µM | TGI [13]: > 100 µM | TGI [14]: > 100 µM | TGI [16]: > 100 µM | TGI [17]: > 100 µM | TGI [18]: > 100 µM | TGI [19]: > 100 µM | TGI [58]: > 100 µM | TGI [20]: > 100 µM | TGI [21]: > 100 µM | TGI [22]: > 100 µM | TGI [23]: > 100 µM | TGI [24]: > 100 µM | TGI [25]: > 100 µM | TGI [26]: > 100 µM | TGI [27]: > 100 µM | TGI [28]: > 100 µM | TGI [59]: > 100 µM | TGI [29]: > 100 µM | TGI [30]: > 100 µM | TGI [31]: > 100 µM | TGI [32]: > 100 µM | TGI [33]: > 100 µM | TGI [34]: > 100 µM | TGI [35]: > 100 µM | TGI [36]: > 100 µM | TGI [37]: > 100 µM | TGI [38]: > 100 µM | TGI [40]: > 100 µM | TGI [41]: > 100 µM | TGI [42]: > 100 µM | TGI [43]: > 100 µM | TGI [44]: > 100 µM | TGI [45]: > 100 µM | TGI [46]: > 100 µM | TGI [47]: > 100 µM | TGI [48]: > 100 µM | TGI [49]: > 100 µM | TGI [50]: > 100 µM | TGI [51]: > 100 µM | TGI [52]: > 100 µM | TGI [53]: > 100 µM | TGI [54]: > 100 µM | TGI [55]: > 100 µM | TGI [56]: > 100 µM | TGI [57]: > 100 µM
